# According to patent publication US20260327221A1, “INHIBITORS OF CYCLIC GMP-AMP SYNTHASE AND USES THEREOF” (Ventus Therapeutics U.S., Inc., priority 2023, published 2026):
# Molecular target: hcGAS (Homo sapiens, UniProt Q8N884)
# Assay: hcGAS LCMS assay (direct measurement of cGAMP production by LC/MS)
# Assay type: biochemical
# Conditions: 4 h incubation with enzyme and substrates; cGAMP production by LC/MS; class symbols; read-out: hcGAS LCMS IC50
# In short: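 Enzyme, substrates (ATP, GTP) and compound incubated 4 h, then quenched with acetonitrile/water containing 0.15 uM 13C/15N-labeled cGAMP internal standard. cGAMP formed quantified directly by LC/MS on HILIC amide column; IC50 values reported in potency bins.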
# hcGAS, sequence (Q8N884 whole entry): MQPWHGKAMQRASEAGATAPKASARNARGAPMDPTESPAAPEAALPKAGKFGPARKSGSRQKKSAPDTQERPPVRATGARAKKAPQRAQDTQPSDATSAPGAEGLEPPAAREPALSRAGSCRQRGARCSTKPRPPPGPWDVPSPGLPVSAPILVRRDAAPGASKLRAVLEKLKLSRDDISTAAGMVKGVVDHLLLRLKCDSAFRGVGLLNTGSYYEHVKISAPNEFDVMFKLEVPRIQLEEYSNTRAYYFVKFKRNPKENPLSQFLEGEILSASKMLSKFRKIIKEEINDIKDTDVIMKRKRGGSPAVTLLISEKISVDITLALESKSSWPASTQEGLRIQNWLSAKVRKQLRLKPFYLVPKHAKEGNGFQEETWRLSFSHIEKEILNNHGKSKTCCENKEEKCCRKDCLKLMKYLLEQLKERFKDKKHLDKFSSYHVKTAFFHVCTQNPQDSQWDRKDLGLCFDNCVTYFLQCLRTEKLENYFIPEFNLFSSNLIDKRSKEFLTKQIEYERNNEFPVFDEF
row,Structure (SMILES),IC50 [nM]
1,"COCCOc1c(-c2c(OC)cccc2OC)cc(C(=O)Nc2nnc(-c3ncsc3N)s2)oc1=O [Compound 51, N-(5-(5-aminothiazol-4-yl)-1,3,4-thiadiazol-2-yl)-4-(2,6-dimethoxyphenyl)-3-(2-methoxyethoxy)-2-oxo-2H-pyran-6-carboxamide]",0.5 to 1
2,"COc1c(-c2ccccc2C#N)cc(C(=O)Nc2nnc(-n3nccc3C)s2)oc1=O [Compound 1, 4-(2-cyanophenyl)-3-methoxy-N-(5-(5-methyl-1H-pyrazol-1-yl)-1,3,4-thiadiazol-2-yl)-2-oxo-2H-pyran-6-carboxamide]",0.5 to 1
3,"COc1cccc(OC)c1-c1cc(C(=O)Nc2nnc(-n3nccc3N)s2)oc(=O)c1OCCN1CCOCC1 [Compound 22, N-(5-(5-amino-1H-pyrazol-1-yl)-1,3,4-thiadiazol-2-yl)-4-(2,6-dimethoxyphenyl)-3-(2-morpholinoethoxy)-2-oxo-2H-pyran-6-carboxamide]",1 to 5
4,"COc1cccc(Cl)c1-c1cc(C(=O)Nc2nnc(-n3nccc3N)s2)oc(=O)c1OCCO (single isomer, unassigned) [Compound 34B*, (Ra)—N-(5-(5-amino-1H-pyrazol-1-yl)-1,3,4-thiadiazol-2-yl)-4-(2-chloro-6-methoxyphenyl)-3-(2-hydroxyethoxy)-2-oxo-2H-pyran-6-carboxamide]",< 0.5
5,"COCCOc1c(-c2c(C#N)cccc2OC)cc(C(=O)Nc2nnc(-n3nccc3N)s2)oc1=O [Compound 8, N-(5-(5-amino-1H-pyrazol-1-yl)-1,3,4-thiadiazol-2-yl)-4-(2-cyano-6-methoxyphenyl)-3-(2-methoxyethoxy)-2-oxo-2H-pyran-6-carboxamide]",0.5 to 1
6,"COCCOc1c(-c2c(OC)ccnc2OC)cc(C(=O)Nc2nnc(-n3nccc3N)s2)oc1=O [Compound 19, N-(5-(5-amino-1H-pyrazol-1-yl)-1,3,4-thiadiazol-2-yl)-4-(2,4-dimethoxypyridin-3-yl)-3-(2-methoxyethoxy)-2-oxo-2H-pyran-6-carboxamide]",1 to 5
7,"COc1cccnc1-c1cc(C(=O)Nc2nnc(-n3nccc3N)s2)oc(=O)c1OCCOC(F)F [Compound 61, N-(5-(5-amino-1H-pyrazol-1-yl)-1,3,4-thiadiazol-2-yl)-3-(2-(difluoromethoxy)ethoxy)-4-(3-methoxypyridin-2-yl)-2-oxo-2H-pyran-6-carboxamide]",1 to 5
8,"COCCOc1c(-c2c(C#N)ccnc2OC)cc(C(=O)Nc2nnc(-n3nccc3N)s2)oc1=O [Compound 66, N-(5-(5-amino-1H-pyrazol-1-yl)-1,3,4-thiadiazol-2-yl)-4-(4-cyano-2-methoxypyridin-3-yl)-3-(2-methoxyethoxy)-2-oxo-2H-pyran-6-carboxamide]",0.5 to 1
9,"COCCOc1c(-c2c(Cl)cccc2OC)cc(C(=O)Nc2nnc(-n3nccc3N)s2)oc1=O (single isomer, unassigned) [Compound 15A*, (Ra)—N-(5-(5-amino-1H-pyrazol-1-yl)-1,3,4-thiadiazol-2-yl)-4-(2-chloro-6-methoxyphenyl)-3-(2-methoxyethoxy)-2-oxo-2H-pyran-6-carboxamide]",< 0.5
10,"COC[C@@H](CO)COc1c(-c2c(OC)cccc2OC)cc(C(=O)Nc2nnc(-n3nccc3N)s2)oc1=O [92A*, (R)-N-(5-(5-amino-1H-pyrazol-1-yl)-1,3,4-thiadiazol-2-yl)-4-(2,6-dimethoxyphenyl)-3-(3-hydroxy-2-(methoxymethyl)propoxy)-2-oxo-2H-pyran-6-carboxamide]",0.5 to 1
11,"COCCOc1c(-c2ncccc2OC)cc(C(=O)Nc2nnc(-n3nccc3N)s2)oc1=O [Compound 10, N-(5-(5-amino-1H-pyrazol-1-yl)-1,3,4-thiadiazol-2-yl)-3-(2-methoxyethoxy)-4-(3-methoxypyridin-2-yl)-2-oxo-2H-pyran-6-carboxamide]",1 to 5
12,"COc1cccc(C#N)c1-c1cc(C(=O)Nc2nnc(-n3nccc3Cl)s2)oc(=O)c1OCCO [Compound 26, N-(5-(5-chloro-1H-pyrazol-1-yl)-1,3,4-thiadiazol-2-yl)-4-(2-cyano-6-methoxyphenyl)-3-(2-hydroxyethoxy)-2-oxo-2H-pyran-6-carboxamide]",< 0.5

# Same assay, conditions: hcGAS 0.5 nM; ATP 100 μM; GTP 100 μM; dsDNA 25 nM; pH 7.4; 4 h incubation; read-out: hcGAS inhibition IC50 (activity class, Table D)
row,Structure (SMILES),IC50 [nM]
1,"COc1c(-c2ccccc2C#N)cc(C(=O)Nc2nnc(-n3nccc3C)s2)oc1=O [Compound 1, 4-(2-cyanophenyl)-3-methoxy-N-(5-(5-methyl-1H-pyrazol-1-yl)-1,3,4-thiadiazol-2-yl)-2-oxo-2H-pyran-6-carboxamide]",0.5 to 1
